The subject of test [1] is GM-CSF induced STAT5 phosphorylation mediated by the JAK2/JAK2 homdimeric complex. The test is described as follows: GM-CSF Induced pSTAT5 in Human PBMC. To be noted: GM-CSF 5 ng/mL for 20 minutes, pSTAT5.
From the text: Human PBMC are isolated from buffy coat and are stored frozen for assays as needed.
The subject of test [2] is IL-12 induced STAT4 phophorylation mediated by Tyk2/JAK2 (heterodimeric complex). The test is described as follows: IL-12 Induced pSTAT4 in Human PBMC. To be noted: 1.7 ng/mL IL-12. In kind it is cell-based. The source says: The IL-12 Induced pSTAT4 assay evaluates the inhibition of IL-12 induced STAT4 phophorylation mediated by Tyk2/JAK2 (heterodimeric complex).
Where [3] appears, read: Homo sapiens, PBMC, 20 min, read-out: PBMC_GMCSF_pSTAT5 IC50, human PBMC.
Where [4] appears, read: read-out: PBMC_GMCSF_pSTAT5 IC50, human PBMC.

Where two headings read alike, the source gives them in different places.

Take `CNc1cc(Nc2cccn(-c3ncccc3F)c2=O)nc2c(C(=O)NCC(C)(C)CO)cnn12` [I-510]: the IC50 (usually the point on the concentration scale where inhibition reaches its midpoint) is above 50000 nM in test [1] (setting [3]) and below 100 nM in test [2].

As for `CNc1cc(Nc2cccn(C[C@@H]3CCCCO3)c2=O)nc2c(C(=O)NC3CC3)cnn12` [I-413], the IC50 in test [1] (setting [3]) is above 50000 nM; in test [2], below 100 nM.

Take `[2H]C([2H])([2H])Oc1ncc(F)cc1Nc1cc(NC)n2ncc(C(=O)NC3CCC3)c2n1` [I-288]: the IC50 is above 2500 nM in test [1] (setting [3]) and below 100 nM in test [2].

As to `CNc1cc(Nc2cccc3ocnc23)nc2c(C(=O)N[C@@H]3CC[C@H]3O)cnn12` [I-857], the IC50 is above 50000 nM in test [1] (setting [4]) and 100 to 500 nM in test [2].

Take `CNc1cc(-c2cn(C(C)C)c3ncccc23)nc2c(C(=O)N[C@H]3CC[C@H]3O)cnn12` [I-637]: the IC50 was above 12500 nM in test [1] (setting [3]) and below 100 nM in test [2].

On to `CNc1cc(Nc2cccnc2OC)nc2c(C(=O)NC3CCC3)cnn12` [I-4], for which the half-inhibitory concentration (IC50) in test [1] (setting [3]) was above 12500 nM; in test [2], below 100 nM.

Take `CNc1cc(Nc2cccn([C@H]3CC[C@H](OC)CC3)c2=O)nc2c(C(=O)N[C@@H]3CC[C@H]3O)cnn12` [I-635]: the IC50 was above 50000 nM in test [1] (setting [3]) and below 100 nM in test [2].

In the case of `CNc1cc(Nc2cccn(-c3cccnc3)c2=O)nc2c(C(=O)NC3CC3)cnn12` [I-747], the IC50 in test [1] (setting [3]) was above 12500 nM; in test [2], 100 to 500 nM.

On to `CNc1cc(Nc2cccc(N3CCO[C@]4(CCOC4)C3)n2)nc2c(C(=O)NC3CC3)cnn12` [I-827], for which the IC50 was above 50000 nM in test [1] (setting [3]) and 100 to 500 nM in test [2].

As to `CNc1cc(Nc2cccn(C3CCC4(CC3)OCCO4)c2=O)nc2c(C(=O)NC3CC3)cnn12` [I-393], the IC50 was above 12500 nM in test [1] (setting [3]) and below 100 nM in test [2].

On to `CNc1cc(Nc2cccn(-c3ccccn3)c2=O)nc2c(C(=O)N[C@H]3CC[C@H]3O)cnn12` [I-805], for which the IC50 in test [1] (setting [3]) was above 12500 nM; in test [2], below 100 nM.

On to `CNc1cc(Nc2cccn3ccnc23)nc2c(C(=O)NC3CC3)cnn12` [I-891], for which the results for the IC50 in test [1] (setting [3]) and in test [2] were above 50000 nM and below 100 nM, respectively.

Regarding `CNc1cc(Nc2cc(Cl)cn(-c3ccn(C)n3)c2=O)nc2c(C(=O)N[C@H]3C[C@H]3F)cnn12` [I-309], the figures for the IC50 in test [1] (setting [3]) and in test [2] were above 12500 nM and below 100 nM, respectively.

Consider `CNc1cc(Nc2cccc([C@@H]3CCCOC3)n2)nc2c(C(=O)N[C@H]3CC[C@@H]3O)cnn12` [I-603], for which the IC50 in test [1] (setting [3]) is above 2500 nM; in test [2] it was below 100 nM.

With `CNc1cc(Nc2cc(Cl)cn(-c3cc(C)n(C)n3)c2=O)nc2c(C(=O)N[C@H]3C[C@H]3F)cnn12` [I-315], the values for the IC50 in test [1] (setting [3]) and in test [2] were above 12500 nM and below 100 nM, respectively.

For the compound `CNc1cc(Nc2cccnc2OC)nc2c(C(=O)NCC(C)(C)CO)cnn12` [I-346], the IC50 is above 2500 nM in test [1] (setting [3]) and below 100 nM in test [2].

For `CNc1cc(Nc2cccn([C@@H]3CCC[C@H](OC)C3)c2=O)nc2c(C(=O)NCC(C)(C)CO)cnn12` [I-951], the results for the IC50 in test [1] (setting [3]) and in test [2] were above 50000 nM and below 100 nM, respectively.

Regarding `CNc1cc(Nc2cccc3ocnc23)nc2c(C(=O)NC3CC3)cnn12` [I-591], the IC50 in test [1] (setting [3]) is above 12500 nM; in test [2], below 100 nM.

On to `CNc1cc(Nc2cc(F)cn(-c3ccccn3)c2=O)nc2c(C(=O)NC3CCC3)cnn12` [I-193], for which the values for the IC50 in test [1] (setting [3]) and in test [2] were above 12500 nM and below 100 nM, respectively.

Turning to `CNc1cc(Nc2cccn([C@H]3[C@@H]4COC[C@@H]43)c2=O)nc2c(C(=O)N[C@@H]3C[C@@H]3F)cnn12` [I-811], the IC50 in test [1] (setting [3]) was above 50000 nM; in test [2], below 100 nM.

For the compound `[2H]C([2H])([2H])Oc1ncc(C)cc1Nc1cc(NC)n2ncc(C(=O)N[C@H]3C[C@H]3F)c2n1` [I-259], the IC50 in test [1] (setting [3]) was above 12500 nM; in test [2] it was below 100 nM.

Regarding `CNc1cc(Nc2cccc(N3CCCC3=O)n2)nc2c(C(=O)N[C@H]3C[C@H]3F)cnn12` [I-244], the IC50 in test [1] (setting [3]) was above 12500 nM; in test [2] it was below 100 nM.

Turning to `CNc1cc(Nc2cc(Cl)cn([C@@H]3CCCOC3)c2=O)nc2c(C(=O)N[C@@H]3C[C@@H]3F)cnn12` [I-773], the IC50 in test [1] (setting [3]) is above 12500 nM; in test [2], below 100 nM.

For `CNc1cc(Nc2cccn([C@H]3CC[C@@H]3O)c2=O)nc2c(C(=O)N[C@@H]3C[C@@H]3F)cnn12` [I-916], the IC50 in test [1] (setting [3]) is above 50000 nM; in test [2], below 100 nM.

Turning to `CNc1cc(Nc2cccc(N3CCOC3=O)n2)nc2c(C(=O)N[C@H]3C[C@H]3F)cnn12` [I-236], the figures for the IC50 in test [1] (setting [3]) and in test [2] were above 2500 nM and below 100 nM, respectively.

For `CNc1cc(Nc2cccc(C3CCCOC3)n2)nc2c(C(=O)N[C@@H]3C[C@@H]3F)cnn12` (some centres unmarked) [I-522], the values for the IC50 in test [1] (setting [3]) and in test [2] were above 50000 nM and below 100 nM, respectively.

Regarding `CNc1cc(Nc2cccn(-c3ccccn3)c2=O)nc2c(C(=O)N[C@@H]3CC[C@H]3OC)cnn12` (stereo in doubt) [I-816, N-(2-methoxycyclobutyl)-7-(methylamino)-5-((2-oxo-2H-[1,2′-bipyridin]-3-yl)amino)pyrazolo[1,5-a]pyrimidine-3-carboxamide], the IC50 in test [1] (setting [4]) is above 2500 nM; in test [2], below 100 nM.

Take `[2H]C([2H])([2H])Oc1ncccc1Nc1cc(NC)n2ncc(C(=O)NCC(C)(C)CO)c2n1` [I-347]: the IC50 in test [1] (setting [3]) is above 50000 nM; in test [2], below 100 nM.

`CNc1cc(Nc2cccn([C@H]3CC[C@@](C)(OC)CC3)c2=O)nc2c(C(=O)NC3CC3)cnn12` [I-359]: the half-inhibitory concentration (IC50) in test [1] (setting [3]) is above 12500 nM; in test [2], 100 to 500 nM.

Turning to `CNc1cc(Nc2cccnc2OC2CC2)nc2c(C(=O)NC3CCC3O)cnn12` (centres unmarked) [I-392, 5-((2-cyclopropoxypyridin-3-yl)amino)-N-(2-hydroxycyclobutyl)-7-(methylamino)pyrazolo[1,5-a]pyrimidine-3-carboxamide], the IC50 in test [1] (setting [3]) is above 50000 nM; in test [2], below 100 nM.

As to `CNc1cc(Nc2cccn([C@@H]3CCC[C@H](OC)C3)c2=O)nc2c(C(=O)N[C@@H]3C[C@@H]3F)cnn12` [I-840], the IC50 in test [1] (setting [3]) was above 50000 nM; in test [2], below 100 nM.

Regarding `CNc1cc(Nc2cccn([C@H]3CC[C@H](OC)CC3)c2=O)nc2c(C(=O)N[C@H]3CC[C@H]3O)cnn12` [I-539], the IC50 was above 50000 nM in test [1] (setting [3]) and below 100 nM in test [2].

Take `[2H]C([2H])([2H])Oc1ncccc1Nc1cc(NC)n2ncc(C(=O)N[C@@H]3CCC[C@@H](O)C3)c2n1` [I-499]: the half-inhibitory concentration (IC50) in test [1] (setting [3]) is above 50000 nM; in test [2], below 100 nM.

Consider `CNc1cc(Nc2cc(Cl)cn(-c3cc(C)n(C)n3)c2=O)nc2c(C(=O)NC3CC3)cnn12` [I-314], for which the IC50 in test [1] (setting [3]) is above 2500 nM; in test [2], below 100 nM.

Regarding `CNc1cc(Nc2cccc(N3CCCC3=O)n2)nc2c(C(=O)NC3CC3)cnn12` [I-7], the IC50 in test [1] (setting [3]) is above 12500 nM; in test [2] it was below 100 nM.

On to `CNc1cc(Nc2cccn(C3CCOCC3)c2=O)nc2c(C(=O)N[C@H]3C[C@H]3F)cnn12` [I-330], for which the IC50 in test [1] (setting [3]) was above 2500 nM; in test [2] it was below 100 nM.

On to `CNc1cc(Nc2cccn([C@H]3CC[C@H](OC)CC3)c2=O)nc2c(C(=O)NCC(C)(C)CO)cnn12` [I-544], for which the IC50 in test [1] (setting [3]) is above 2500 nM; in test [2] it was below 100 nM.

On to `CCOc1ccc(-n2cccc(Nc3cc(NC)n4ncc(C(=O)N[C@H]5C[C@H]5F)c4n3)c2=O)nn1` [I-117], for which the IC50 in test [1] (setting [3]) is above 2500 nM; in test [2], below 100 nM.

Turning to `CNc1cc(Nc2cc(Cl)cn([C@H]3CCCN(C)C3)c2=O)nc2c(C(=O)N[C@@H]3C[C@@H]3F)cnn12` [I-854], the results for the IC50 in test [1] (setting [3]) and in test [2] were above 50000 nM and below 100 nM, respectively.

Turning to `CNc1cc(Nc2cc(F)cnc2OCCOC)nc2c(C(=O)NC3CCC3)cnn12` [I-290], the figures for the IC50 in test [1] (setting [3]) and in test [2] were above 2500 nM and below 100 nM, respectively.

For the compound `CNc1cc(Nc2cccnc2OCCOC)nc2c(C(=O)N[C@H]3C[C@H]3F)cnn12` [I-220], the IC50 in test [1] (setting [3]) was above 12500 nM; in test [2], below 100 nM.

As for `CNc1cc(Nc2cccc(N3CCOC3=O)n2)nc2c(C(=O)NC3CCC3)cnn12` [I-105], the IC50 in test [1] (setting [3]) is above 12500 nM; in test [2], below 100 nM.

In turn, `CNc1cc(Nc2cccn([C@H]3[C@@H]4COC[C@@H]43)c2=O)nc2c(C(=O)N[C@@H]3CC[C@H]3OC)cnn12` [I-1354] returned an IC50 in test [2] below 100 nM.

The compound `CNc1cc(Nc2cccn([C@H]3CC[C@@H]3O)c2=O)nc2c(C(=O)N[C@H]3CC[C@@H]3OC)cnn12` [I-1385] displayed an IC50 in test [2] below 100 nM.

Regarding `CNc1cc(-c2cn([C@H]3CCCOC3)c3ncccc23)nc2c(C(=O)N[C@H]3CC[C@@H]3OC)cnn12` [I-1283], the IC50 in test [2] is below 100 nM.

Take `CNc1cc(Nc2cccn(-c3nn(C)cc3C)c2=O)nc2c(C(=O)NC3CC3)cnn12` [I-404]: in test [2], the IC50 was above 1000 nM.

Compound `CNc1cc(Nc2cccn([C@@H]3CCC[C@@H](OC)C3)c2=O)nc2c(C(=O)N[C@H]3CC[C@@H]3OC)cnn12` [I-1331] had an IC50 in test [2] below 100 nM.

Compound `[2H]C([2H])([2H])Oc1ncccc1Nc1cc(NC)n2ncc(C(=O)N[C@H]3CC[C@@H]3O)c2n1` [I-411] displayed an IC50 in test [2] below 100 nM.

The compound `CNc1cc(Nc2cccn([C@H]3CCN(CCF)C3)c2=O)nc2c(C(=O)N[C@H]3CC[C@@H]3OC)cnn12` [I-1381] came in with an IC50 in test [2] below 100 nM.

Turning to `CNc1cc(Nc2cccn(-c3ccc(F)cc3)c2=O)nc2c(C(N)=O)cnn12` [I-9], the IC50 in test [2] lay in the range of 100 to 500 nM.

In test [2], `CNc1cc(Nc2cccn([C@H]3CCC[C@H](O)C3)c2=O)nc2c(C(=O)N[C@@H]3CC[C@H]3OC)cnn12` [I-1395] showed an IC50 below 100 nM.

The compound `CNc1cc(Nc2cccn3cnnc23)nc2c(C(=O)N[C@H]3CC[C@@H]3OC)cnn12` [I-1343] had an IC50 in test [2] below 100 nM.

For `CNc1cc(Nc2cccn([C@H]3CC[C@](C)(O)CC3)c2=O)nc2c(C(=O)N[C@H]3C[C@H]3F)cnn12` [I-372], the IC50 in test [2] is below 100 nM.

Source of the values: patent US10577373B2, “TYK2 inhibitors and uses thereof” (Nimbus Lakshmi, Inc., priority 2017, dated 2020).
